Patent US20090104297A1, “HERBAL COMPOSITION FOR TREATMENT OF INFECTIONS CAUSED BY DERMATOPHYTES” (Piramal Life Sciences Limited, priority 2006, published 2009)
≈ marks a conversion by molar mass, not a printed value. Read-outs that look alike come from different tables or passages of the source.

Legend:
[1] = tested on: Trichophyton mentagrophytes; experiment: In vitro susceptibility testing (MIC) by macro broth dilution method (CLSI M-38); format: cell-based; conditions: for MIC: Trichophyton mentagrophytes
Experimental: (§1) In vitro susceptibility testing (Minimum Inhibitory Concentration) by macro broth dilution method—(CLSI method-M-38) was carried out as described in literature.
(§2) Reference method for broth dilution antifungal susceptibility testing of yeasts-Approved standard. NCCLS document M27-A. National Committee for Clinical Laboratory Standards, Wayne, Pa.;
(§3) Reference method for broth dilution antifungal susceptibility testing of filamentous fungi-Approved standard. NCCLS document M38-A. National Committee for Clinical Laboratory Standards, Wayne, Pa.
(§4) Candida albicans, Trichophyton mentagrophytes and Micropsporum gypseum were used as test organisms.
(§5) RPMI 1640 (Sigma) with L-glutamine but without sodium bicarbonate and buffered at pH 7.0 with 3-(N-morpholino) propanesulfonic acid monosodium salt (MOPS), was the medium used for broth macro dilution susceptibility testing.
(§6) The extract of example 1, compound 1 and ketoconazole as standard.
(§7) The samples were prepared in methanol at 100 times the final concentration, followed by further dilutions (1:10) in RPMI 1640 medium to yield ten times the final strength required for the test. Purified component was also diluted in the same manner in methanol alone. Aliquots (0.1 ml) of each extract were dispensed into tubes. The final concentrations of extract ranged from 100-10 μg/ml.
(§8) The cultures were grown on PDA agar slants at 28° C. for 7 days. The growth was covered with sterile saline and scraped to get a growth suspension. The resulting mixture of conidia or sporangiospores and hypal fragments was transferred to a sterile test tube. The heavy particles were allowed to settle and upper homogenous suspension was transferred to another tube. These suspensions were adjusted to an optical density that ranged from 0.09 to 0.11 (80 to 82% transmittance). These stock suspensions were further diluted 1:100 with medium to obtain test inoculum (0.4×10^4 to 5×10^4 cfu/ml).
(§9) Finally the tubes were inoculated with 0.1 ml of sample dilutions and 0.9 ml of the above-prepared inoculum. […] Growth control tube received only diluent without sample. […]

[2] = tested on: Trichophyton mentagrophytes; experiment: Agar well diffusion method, zone of inhibition; format: cell-based; conditions: preparative HPLC fractions; concentration not given
Experimental: The given extracts were tested against a panel of microorganisms, including Candida albicans 10231, Microsporum gypseum and Trichophyton mentagrophytes.
The strains were cultured overnight at 30° C. in Sabouraud dextrose agar. Colonies from subcultures were suspended in saline and vortexed to give a transmittance of 75-80% at 530 nm (T530 nm≈10^8 cfu/ml). Predecided volume of inoculum was mixed with molten agar at 40° C. and poured into sterile petri plates. Plates were allowed to set and solidify. Then wells (6 mm in diameter) were cut from the agar and 0.05 ml of extract solution was delivered into them. After incubation for 48 hours, at 28° C., all plates were examined for any zones of growth inhibition, and the diameters of these zones were measured in millimeters.
The stock solutions of 10 mg/ml of extracts of example 1 was prepared by suspending extract in methanol and sonicating for 10 seconds. Further dilutions were made to get a concentration range of 5, 2 and 1 mg/ml.
Preparative TLC samples were analyzed for the activity by Agar well diffusion method as described in example 2.
All preparative HPLC fractions were analyzed for activity by Agar well diffusion method as described in example 2.

Candida albicans = experiment: In vitro susceptibility testing (MIC) by macro broth dilution method (CLSI M-38); format: cell-based
Experimental: as §1, §2, §3, §4, §5, §6
as §7, with “μg/ml. […]” for “μg/ml.”

Micropsporum gypseum = experiment: as above; format: cell-based, Microsporum gypseum; conditions: for MIC: Nannizzia gypsea
Experimental: as §1, §2, §3, §4, §5, §6, §7, §8, §9

| SMILES | MIC ([1]; 48 h, pH 7, read-out: MIC values, Trichophyton mentagrophytes) [µg/mL] | MIC against dermatophytes versus ketoconazole (conclusion of Table 3), Trichophyton mentagrophytes ([1]; macro broth dilution) | zone of inhibition (tested against Trichophyton mentagrophytes culture) [2] [mm] | MIC (Candida albicans; 24 h, pH 7, read-out: MIC values, Candida ablicans) [µg/mL] | MIC (Micropsporum gypseum; 48 h, pH 7, read-out: MIC values, Microsporum gypseum) [µg/mL] | MIC against dermatophytes versus ketoconazole (conclusion of Table 3), Microsporum gypseum (Micropsporum gypseum; macro broth dilution) | MIC ([1]; macro broth dilution, RPMI 1640 pH 7.0, 28° C. for 48 hours, 100% growth inhibition, read-out: MIC values, Trichophyton mentagrophytes) [µg/mL] | MIC (Candida albicans; macro broth dilution, RPMI 1640 pH 7.0, 37° C. for 24 hours, 100% growth inhibition, read-out: MIC values, Candida ablicans) [µg/mL] | MIC (Micropsporum gypseum; macro broth dilution, RPMI 1640 pH 7.0, 28° C. for 48 hours, 100% growth inhibition, read-out: MIC values, Microsporum gypseum) [µg/mL] |
| --- | --- | --- | --- | --- | --- | --- | --- | --- | --- |
| COc1cc2[nH]c3ccccc3c2cc1C [Compound 1, 2-methoxy-3-methyl-9H-carbazole] | 6 (≈ 28.4 µM) | Conclusion: MIC of compound 1 against dermatophytes is comparable with ketoconazole. | > 25 | 30 (≈ 142 µM) | 4 (≈ 18.9 µM) | Conclusion: MIC of compound 1 against dermatophytes is comparable with ketoconazole. | – | – | – |
| CC(=O)N1CCN(c2ccc(OCC3COC(Cn4ccnc4)(c4ccc(Cl)cc4Cl)O3)cc2)CC1 (stereo not drawn) [Ketoconazole, ketoconazole, reference compound] | – | – | – | – | – | – | 4 (≈ 7.53 µM) | 5 (≈ 9.41 µM) | 4 (≈ 7.53 µM) |
